The text below walks through data of BindingDB's records for doi:10.1016/j.bioorg.2016.03.010 (Universiti Teknologi Mara (Uitm), Puncak Alam Campus, 2016).

SMILES strings stand for the structures.

Chain of Urease (P07374 whole entry): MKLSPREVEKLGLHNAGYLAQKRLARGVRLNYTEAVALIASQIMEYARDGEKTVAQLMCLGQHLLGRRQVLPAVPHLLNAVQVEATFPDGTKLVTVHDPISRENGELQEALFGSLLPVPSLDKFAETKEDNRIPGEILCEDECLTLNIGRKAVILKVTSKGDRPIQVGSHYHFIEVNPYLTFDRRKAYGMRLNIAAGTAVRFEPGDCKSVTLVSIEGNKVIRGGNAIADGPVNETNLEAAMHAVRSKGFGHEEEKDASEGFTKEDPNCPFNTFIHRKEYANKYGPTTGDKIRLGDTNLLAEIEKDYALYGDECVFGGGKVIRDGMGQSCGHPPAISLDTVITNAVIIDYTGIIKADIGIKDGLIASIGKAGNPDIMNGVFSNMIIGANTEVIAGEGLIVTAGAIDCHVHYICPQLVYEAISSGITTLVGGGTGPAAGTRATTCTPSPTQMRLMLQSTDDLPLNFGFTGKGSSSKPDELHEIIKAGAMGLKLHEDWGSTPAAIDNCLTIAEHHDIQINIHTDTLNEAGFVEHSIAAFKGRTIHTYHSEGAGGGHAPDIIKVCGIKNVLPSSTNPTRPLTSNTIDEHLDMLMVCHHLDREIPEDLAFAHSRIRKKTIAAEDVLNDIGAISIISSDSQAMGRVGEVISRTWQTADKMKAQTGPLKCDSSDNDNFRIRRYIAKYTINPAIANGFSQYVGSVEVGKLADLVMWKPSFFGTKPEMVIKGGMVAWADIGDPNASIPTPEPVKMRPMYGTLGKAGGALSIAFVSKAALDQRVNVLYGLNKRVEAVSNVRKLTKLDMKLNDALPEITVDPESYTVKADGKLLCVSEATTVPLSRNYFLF

This experiment addresses Urease (Canavalia ensiformis, UniProt P07374). The experiment in a line: Urease Inhibition Assay. The settings on record: pH 6.8; 30 °C. As for the experimental part: To understand the binding modes of the compounds given in Table 1, all ligands were docked into the binding site of Urease enzyme. The top ranked conformations of each ligand were saved in a separate database for further evaluation. The docking results well correlated with the experimental results. The reaction mixtures, comprising 25 uL of enzyme (jack bean urease, Sigma aldrich) solution and 55 uL of buffers containing 100 mM urea, were incubated with 5 uL of the test compounds (0.5 mM concentration) at 30 °C for 15 min in 96-well plates. For the kinetics assessment the urea concentrations were changed from 2 to 24 mM. Urease activity was determined by measuring ammonia production using the indophenol method as described by Weatherburn. Briefly, 45 uL of phenol reagent (1% w/v phenol and 0.005% w/v sodium nitroprusside (Sigma Aldrich)) and, 70 uL of alkali reagent (0.5% w/v NaOH (Sigma Aldrich) and 0.1% active chloride NaOCl (Sigma Aldrich)) were added to each well. The increasing absorbance at 630 nm was measured after 50 min, using a microplate reader (Molecular Device, USA). All reactions were performed in triplicate in a final volume of 200 uL. The results (change in absorbance per min) were processed by using SoftMax-Pro software (molecular Device, USA). The entire assays were performed at pH 6.8.
Consider `COc1cccc(NC(=S)NNC(=O)c2ccc(-c3nc4ccccc4s3)cc2)c1` [2-(4-(benzo[d]thiazol-2-yl)benzoyl)-N-(3-methoxyphenyl)hydrazinecarbothioamide (15)], for which the 50% inhibitory concentration (IC50) turned out to be 28.1 µM.

In the case of `COc1ccc(NC(=S)NNC(=O)c2ccc(-c3nc4ccccc4s3)cc2)cc1` [2-(4-(benzo[d]thiazol-2-yl)benzoyl)-N-(4-methoxyphenyl)hydrazinecarbothioamide (9)], the IC50 was 13.6 µM.

`O=C(NNC(=S)Nc1ccc(F)cc1)c1ccc(-c2nc3ccccc3s2)cc1` [2-(4-(benzo[d]thiazol-2-yl)benzoyl)-N-(4-fluorophenyl)hydrazinecarbothioamide (6)] returned an IC50 of 2.5 µM. Against the preceding molecule, the IC50 is about 5.4-fold lower.

Regarding `Cc1cccc(NC(=S)NNC(=O)c2ccc(-c3nc4ccccc4s3)cc2)c1` [2-(4-(benzo[d]thiazol-2-yl)benzoyl)-N-(m-tolyl)hydrazinecarbothioamide (11)], the concentration for half-maximal inhibition (IC50) is 18.7 µM.

In turn, `O=C(NNC(=S)Nc1ccccc1)c1ccc(-c2nc3ccccc3s2)cc1` [2-(4-(benzo[d]thiazol-2-yl)benzoyl)-N-phenylhydrazinecarbothioamide (20)] gave a half-maximal inhibitory concentration (IC50) of 19.1 µM.

With `O=C(NNC(=S)Nc1ccc(C(F)(F)F)cc1)c1ccc(-c2nc3ccccc3s2)cc1` [2-(4-(benzo[d]thiazol-2-yl)benzoyl)-N-(4-(trifluoromethyl)phenyl)hydrazine-carbothioamide (17)], the IC50 is 1.6 µM.

In turn, `O=C(NNC(=S)NC12CC3CC(CC(C3)C1)C2)c1ccc(-c2nc3ccccc3s2)cc1` [N-(adamantan-1-yl)-2-(4-(benzo[d]thiazol-2-yl)benzoyl)hydrazinecarbothioamide (19)] returned a half-inhibitory concentration (IC50) of 34.4 µM.

`O=C(NNC(=S)Nc1ccc(Br)cc1)c1ccc(-c2nc3ccccc3s2)cc1` [2-(4-(benzo[d]thiazol-2-yl)benzoyl)-N-(4-bromophenyl)hydrazinecarbothioamide (7)]: the IC50 turned out to be 13.7 µM.

As for `O=C(NNC(=S)Nc1cccc(F)c1)c1ccc(-c2nc3ccccc3s2)cc1` [2-(4-(benzo[d]thiazol-2-yl)benzoyl)-N-(3-fluorophenyl)hydrazinecarbothioamide (12)], inhibition was half-maximal at 6.3 µM (IC50).

Molecule `O=C(NNC(=S)Nc1ccccc1Br)c1ccc(-c2nc3ccccc3s2)cc1` [2-(4-(benzo[d]thiazol-2-yl)benzoyl)-N-(2-bromophenyl)hydrazinecarbothioamide (4)] displayed an IC50 of 6.9 µM. The IC50 values of the last two molecules are within 1.5-fold of each other.

`O=C(NNC(=S)Nc1cccc([N+](=O)[O-])c1)c1ccc(-c2nc3ccccc3s2)cc1` [4-(1,3-benzothiazol-2-yl)-N-{[(3-nitrophenyl)carbamothioyl]amino}benzamide (14)] showed a half-inhibitory concentration (IC50) of 5.7 µM. The IC50 values of the last two molecules are within 1.5-fold of each other.

`Cc1ccc(NC(=S)NNC(=O)c2ccc(-c3nc4ccccc4s3)cc2)cc1` [2-(4-(benzo[d]thiazol-2-yl)benzoyl)-N-(p-tolyl)hydrazinecarbothioamide (5)] gave an IC50 of 10.4 µM. Against the preceding molecule, the IC50 is about 1.8-fold higher.

`O=C(NNC(=S)Nc1ccc([N+](=O)[O-])cc1)c1ccc(-c2nc3ccccc3s2)cc1` [2-(4-(benzo[d]thiazol-2-yl)benzoyl)-N-(4-nitrophenyl)hydrazinecarbothioamide (10)] displayed an IC50 of 1.4 µM.

In turn, `O=C(NNC(=S)Nc1ccccc1Cl)c1ccc(-c2nc3ccccc3s2)cc1` [2-(4-(benzo[d]thiazol-2-yl)benzoyl)-N-(2-chlorophenyl)hydrazinecarbothioamide (3)] gave a 50% inhibitory concentration (IC50) of 4.3 µM.

For `O=C(NNC(=S)Nc1ccccc1F)c1ccc(-c2nc3ccccc3s2)cc1` [2-(4-(benzo[d]thiazol-2-yl)benzoyl)-N-(2-fluorophenyl)hydrazinecarbothioamide (2)], the IC50 turned out to be 3.4 µM.

Consider `O=C(NNC(=S)Nc1cccc(Br)c1)c1ccc(-c2nc3ccccc3s2)cc1` [4-(1,3-benzothiazol-2-yl)-N-{[(3-bromophenyl)carbamothioyl]amino}benzamide (13)], for which the IC50 turned out to be 11.4 µM.

`Cc1ccccc1NC(=S)NNC(=O)c1ccc(-c2nc3ccccc3s2)cc1` [2-(4-(benzo[d]thiazol-2-yl)benzoyl)-N-(o-tolyl)hydrazinecarbothioamide (1)] showed an IC50 of 7.4 µM. Compared with the last molecule, the IC50 is about 1.5-fold lower.

With `O=C(NNC(=S)Nc1ccc(Cl)cc1)c1ccc(-c2nc3ccccc3s2)cc1` [2-(4-(benzo[d]thiazol-2-yl)benzoyl)-N-(4-chlorophenyl)hydrazinecarbothioamide (8)], the midpoint of inhibition, the IC50, lay at 5.5 µM.

Usually IC50 stands for the midpoint of a concentration-inhibition curve. The low end stands for greater potency in that assay, the high end for weaker potency in that assay.
